In the supplement of paper PMC10307832:

Columns and labels:
Test in all cases: relative viability (nuclei count vs DMSO), 5 days (fraction); higher = more cells survive
[1] = system: 201T
Method in brief: (§1)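 One day after seeding in 1536-well plates, lung cancer cell lines were dosed by pin tool. Dosing was either single-drug or a fixed anchor-drug dose plus five library-drug doses (not always all listed) in √10 steps. After 5 days, nuclei were stained in one fix-and-stain step and counted on 4× images, and relative viability is the nuclei count of treated wells over that of vehicle wells, given as the median of duplicate plates.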

[2] = system: ABC-1
Method in brief: as §1

[3] = system: COR-L23
Method in brief: as §1

[4] = system: EKVX
Method in brief: as §1

[5] = system: EPLC-272H
Method in brief: as §1

[6] = system: LOU-NH91
Method in brief: as §1

[7] = system: NCI-H1563
Method in brief: as §1

[8] = system: NCI-H1650
Method in brief: as §1

[9] = system: NCI-H1734
Method in brief: as §1

[10] = system: NCI-H1793
Method in brief: as §1

[11] = system: NCI-H1993
Method in brief: as §1

[12] = system: NCI-H2023
Method in brief: as §1

[13] = system: NCI-H2085
Method in brief: as §1

[14] = system: NCI-H2170
Method in brief: as §1

[15] = system: NCI-H2347
Method in brief: as §1

[16] = system: NCI-H2405
Method in brief: as §1

[17] = system: NCI-H3122
Method in brief: as §1

[18] = system: NCI-H441
Method in brief: as §1

[19] = system: NCI-H520
Method in brief: as §1

[20] = system: NCI-H647
Method in brief: as §1

[21] = system: PC-14
Method in brief: as §1

[22] = system: RERF-LC-KJ
Method in brief: as §1

[23] = system: SW 900
Method in brief: as §1

For `COc1cc(N2CCC(C(N)=O)CC2)ccc1Nc1nc(N)c(Cl)c(Nc2ccccc2S(=O)(=O)C(C)C)n1` [HG-5-88-01] + Cc1nc(Nc2ncc(C(=O)Nc3c(C)cccc3Cl)s2)cc(N2CCN(CCO)CC2)n1 [Dasatinib] (partner 0.075 µM), the relative viability ([1]; first compound 0.04 µM) was 0.616, the relative viability ([1]; first compound 0.1265 µM) was 0.56 and the relative viability ([1]; first compound 0.4 µM) was 0.545. The relative viability ([1]; first compound 1.265 µM) was 0.512, the relative viability ([1]; first compound 4 µM) was 0.267 and the relative viability ([2]; first compound 0.04 µM) was 0.5. It also gave a relative viability ([2]; first compound 0.1265 µM) of 0.583, a relative viability ([2]; first compound 0.4 µM) of 0.389 and a relative viability ([2]; first compound 1.265 µM) of 0.457. It also gave a relative viability ([2]; first compound 4 µM) of 0.304, a relative viability ([3]; first compound 0.04 µM) of 0.536 and a relative viability ([3]; first compound 0.1265 µM) of 0.465. For the same compound, the relative viability ([3]; first compound 0.4 µM) was 0.436, the relative viability ([3]; first compound 1.265 µM) was 0.374 and the relative viability ([3]; first compound 4 µM) was 0.169. The relative viability ([4]; first compound 0.04 µM) was 0.479, the relative viability ([4]; first compound 0.1265 µM) was 0.563 and the relative viability ([4]; first compound 0.4 µM) was 0.435. The relative viability ([4]; first compound 4 µM) was 0.273, the relative viability ([5]; first compound 0.04 µM) was 0.49 and the relative viability ([5]; first compound 0.1265 µM) was 0.31. It also gave a relative viability ([5]; first compound 0.4 µM) of 0.226, a relative viability ([5]; first compound 1.265 µM) of 0.121 and a relative viability ([5]; first compound 4 µM) of 0.0712. The relative viability ([6]; first compound 0.04 µM) was 0.57, the relative viability ([6]; first compound 0.1265 µM) was 0.524 and the relative viability ([6]; first compound 0.4 µM) was 0.493. For the same compound, the relative viability ([6]; first compound 1.265 µM) was 0.321, the relative viability ([6]; first compound 4 µM) was 0.243 and the relative viability ([7]; first compound 0.04 µM) was 0.453. For the same compound, the relative viability ([7]; first compound 0.1265 µM) was 0.445, the relative viability ([7]; first compound 0.4 µM) was 0.436 and the relative viability ([7]; first compound 1.265 µM) was 0.367. The relative viability ([7]; first compound 4 µM) was 0.381, the relative viability ([8]; first compound 0.04 µM) was 0.324 and the relative viability ([8]; first compound 0.1265 µM) was 0.327. For the same compound, the relative viability ([8]; first compound 0.4 µM) was 0.278, the relative viability ([8]; first compound 1.265 µM) was 0.232 and the relative viability ([8]; first compound 4 µM) was 0.221. For the same compound, the relative viability ([9]; first compound 0.04 µM) was 0.412, the relative viability ([9]; first compound 0.1265 µM) was 0.432 and the relative viability ([9]; first compound 0.4 µM) was 0.326. The relative viability ([9]; first compound 1.265 µM) was 0.358, the relative viability ([9]; first compound 4 µM) was 0.284 and the relative viability ([10]; first compound 0.1265 µM) was 0.617. For the same compound, the relative viability ([10]; first compound 0.4 µM) was 0.355, the relative viability ([10]; first compound 4 µM) was 0.336 and the relative viability ([11]; first compound 0.04 µM) was 0.633. The relative viability ([11]; first compound 0.1265 µM) was 0.569, the relative viability ([11]; first compound 0.4 µM) was 0.502 and the relative viability ([11]; first compound 1.265 µM) was 0.475. It also gave a relative viability ([11]; first compound 4 µM) of 0.581, a relative viability ([12]; first compound 0.04 µM) of 0.646 and a relative viability ([12]; first compound 0.1265 µM) of 0.515. For the same compound, the relative viability ([12]; first compound 0.4 µM) was 0.318, the relative viability ([12]; first compound 1.265 µM) was 0.196 and the relative viability ([12]; first compound 4 µM) was 0.207. It also gave a relative viability ([13]; first compound 0.04 µM) of 0.296, a relative viability ([13]; first compound 0.1265 µM) of 0.242 and a relative viability ([13]; first compound 0.4 µM) of 0.24. For the same compound, the relative viability ([13]; first compound 1.265 µM) was 0.186, the relative viability ([13]; first compound 4 µM) was 0.163 and the relative viability ([14]; first compound 0.04 µM) was 0.502. It also gave a relative viability ([14]; first compound 0.1265 µM) of 0.441, a relative viability ([14]; first compound 0.4 µM) of 0.498 and a relative viability ([14]; first compound 1.265 µM) of 0.165. For the same compound, the relative viability ([14]; first compound 4 µM) was 0.269, the relative viability ([15]; first compound 0.04 µM) was 0.267 and the relative viability ([15]; first compound 0.1265 µM) was 0.319. The relative viability ([15]; first compound 0.4 µM) was 0.318, the relative viability ([15]; first compound 1.265 µM) was 0.303 and the relative viability ([15]; first compound 4 µM) was 0.295. The relative viability ([16]; first compound 0.04 µM) was 0.207, the relative viability ([16]; first compound 0.1265 µM) was 0.179 and the relative viability ([16]; first compound 0.4 µM) was 0.155. For the same compound, the relative viability ([16]; first compound 1.265 µM) was 0.197, the relative viability ([16]; first compound 4 µM) was 0.153 and the relative viability ([17]; first compound 0.04 µM) was 0.542. The relative viability ([17]; first compound 0.1265 µM) was 0.209, the relative viability ([17]; first compound 0.4 µM) was 0.149 and the relative viability ([17]; first compound 1.265 µM) was 0.161. The relative viability ([17]; first compound 4 µM) was 0.109, the relative viability ([18]; first compound 0.04 µM) was 0.601 and the relative viability ([18]; first compound 0.1265 µM) was 0.625. It also gave a relative viability ([18]; first compound 0.4 µM) of 0.31, a relative viability ([18]; first compound 1.265 µM) of 0.314 and a relative viability ([18]; first compound 4 µM) of 0.231. The relative viability ([19]; first compound 0.04 µM) was 0.201, the relative viability ([19]; first compound 0.1265 µM) was 0.176 and the relative viability ([19]; first compound 0.4 µM) was 0.184. For the same compound, the relative viability ([19]; first compound 1.265 µM) was 0.162, the relative viability ([19]; first compound 4 µM) was 0.2 and the relative viability ([20]; first compound 0.04 µM) was 0.162. It also gave a relative viability ([20]; first compound 0.1265 µM) of 0.216, a relative viability ([20]; first compound 0.4 µM) of 0.114 and a relative viability ([20]; first compound 1.265 µM) of 0.0855. It also gave a relative viability ([20]; first compound 4 µM) of 0.112, a relative viability ([21]; first compound 0.04 µM) of 0.234 and a relative viability ([21]; first compound 0.1265 µM) of 0.185. It also gave a relative viability ([21]; first compound 0.4 µM) of 0.0685, a relative viability ([21]; first compound 1.265 µM) of 0.0374 and a relative viability ([21]; first compound 4 µM) of 0.0307. It also gave a relative viability ([22]; first compound 0.04 µM) of 0.804, a relative viability ([22]; first compound 0.1265 µM) of 0.81 and a relative viability ([22]; first compound 0.4 µM) of 0.671. For the same compound, the relative viability ([22]; first compound 1.265 µM) was 0.465, the relative viability ([22]; first compound 4 µM) was 0.41 and the relative viability ([23]; first compound 0.04 µM) was 0.848. The relative viability ([23]; first compound 0.1265 µM) was 0.548, the relative viability ([23]; first compound 0.4 µM) was 0.391 and the relative viability ([23]; first compound 1.265 µM) was 0.578. The relative viability ([23]; first compound 4 µM) was 0.17.
